According to US4310523A, “Combined antiestrogens and antigonadotropically effective antiandrogens for the prophylaxis and therapy of hyperplasia of the prostate” (priority 1978, dated 1982):

Tests used:
[1] = tested on: vaginal epithelium (hornification); experiment: Vaginal swab test of the castrated rat; format: in vivo; conditions: subcutaneous, 1 mg
Method: One example of compounds having possible antiestrogenic effects which are not included within the scope of this invention are those disclosed in U.S. Pat. No. 4,055,641 to Benson et al which are primarily anabolic androgens. For example, the compound preferred by Benson et al, 3,17-dioxoandrost-4-ene-19-al (Column 3, lines 67-68) was tested in the vaginal swab test of the castrated rat after subcutaneous application in a dosage of 1 mg. […] In addition, the compounds of Benson et al were tested on intact (not castrated) male animals or probands. These estrogenous substances acted on the prostate by removal of androgen, not by displacing estrogen as for the antiestrogens used in this invention. The difference between the antiestrogens acting through an antagonism to estrogen receptors, i.e., those used in this invention, and those which are primariy androgenic or gestogenic in activity with some simultaneous antiestrogenic effect is also discussed in Nishino, supra.

[2] = tested on: Estradiol-stimulated Uterus Weight of Infantile Mice; experiment: Antiestrogenic effect on the estradiol-stimulated uterus weight of infantile mice (uterus growth test); format: in vivo; conditions: for Effect on uterus weight of the estradiol-stimulated uterus of infantile mice, in words: s.c., 0.3-300 μg/animal/day
Method: Daily for 3 days 0.03 μg of estradiol and measured dosages of the antiestrogen to be tested are simultaneously applied to castrated or infantile mice subcutaneously. The animals are killed on the fourth day, and the uteri are removed and weighed without contents (See Table 1). The same test is carried out on castrated or infantile rats using 0.1 μg of estradiol.
Antiestrogenic Effect of Ru-16117 and Tamoxifen on the Estradiol-stimulate
d Uterus Weight of Infantile Mice
(Mode of Administration: Subcutaneous - Number of Animals per Group:
Ru-16117, Tamoxifen and Estradiol are dissolved in a medium consisting of
benzylbenzoate/castor oil (1:10)

[3] = tested on: prostate hyperplasia; experiment: Prostate hyperplasia in younger dogs treated with estrogen or estrogen/androgen mixture, additional treatment with anti-androgen; format: in vivo, dog; conditions: additional cyproterone acetate
Excerpt: Also in the dog, there is a proliferation primarily of the fibromuscular portion of the prostate. It is also possible to cause the aspects of the disease in younger dogs by treatment with an estrogen or an estrogen/androgen mixture.

[4] = tested on: prostate hyperplasia; conditions: cited from earlier work
[5] = tested on: hyperplastic prostate; conditions: one-year study, patients; cited from earlier work
[6] = 3 μg/animal/day s.c. + 0.03 μg estradiol/animal/day, 3 days
[7] = 3 μg/animal/day s.c. + 0.03 μg estradiol/animal/day, 3 days, 8 animals per group
[8] = 30 μg/animal/day s.c. + 0.03 μg estradiol/animal/day, 3 days
[9] = 30 μg/animal/day s.c. + 0.03 μg estradiol/animal/day, 3 days, 8 animals per group

## C[C@]12CC[C@H]3[C@@H](CCC4=CC(=O)CC[C@@]43C=O)[C@@H]1CCC2=O [3,17-dioxoandrost-4-ene-19-al]
[1]
  Estrogenous effect: strongly estrogenous effect
  Hornification of the vaginal epithelium: Hornification of the vaginal epitelium took place

## C[C@]12CC[C@@H]3c4ccc(O)cc4CC[C@H]3[C@@H]1CC[C@@H]2O [Estradiol]
[2]; single administration of 0.03 μg estradiol once daily over 3 days, s.c. (untreated control 11.8 ± 1.3)
  Uterus Weight, Average Value ± Standard Deviation: 63.9 ± 6.2 mg

## C#C[C@]1(O)CC[C@H]2[C@@H]3CCc4cc(O)ccc4[C@H]3[C@H](OC)C[C@@]21C [Ru-16117, 11α-methoxy-17α-ethynyl-1,3,5(10)-estratriene-3,17β-diol]
[2]; 0.3 μg/animal/day s.c. + 0.03 μg estradiol/animal/day, 3 days
  % Inhibition, Decrease of Uterus Weight in Comparison to Single Estradiol Administration: 8%
[2]; 0.3 μg/animal/day s.c. + 0.03 μg estradiol/animal/day, 3 days, 8 animals per group
  Uterus Weight, Average Value ± Standard Deviation: 60.0 ± 2.4 mg
[2]; [6]
  % Inhibition, Decrease of Uterus Weight in Comparison to Single Estradiol Administration: 27%
[2]; [7]
  Uterus Weight, Average Value ± Standard Deviation: 49.8 ± 1.6 mg
[2]; [8]
  % Inhibition, Decrease of Uterus Weight in Comparison to Single Estradiol Administration: 58%
[2]; [9]
  Uterus Weight, Average Value ± Standard Deviation: 34.3 ± 2.3 mg
[2]; "somewhat more effective than Tamoxifen"
  Effectiveness compared with Tamoxifen: somewhat more
[2]; 3 days
  Effect on uterus weight of the estradiol-stimulated uterus of infantile mice, in words: pronounced dosagedependent decrease in uterus weight

## CC/C(=C(\c1ccccc1)c1ccc(OCCN(C)C)cc1)c1ccccc1 [Tamoxifen, (Z)-2-[p-(1,2-diphenyl-1-butenyl)-phenoxy]-N,N-dimethylethylamine]
[2]; [6]
  % Inhibition, Decrease of Uterus Weight in Comparison to Single Estradiol Administration: 11%
[2]; [7]
  Uterus Weight, Average Value ± Standard Deviation: 57.5 ± 2.1 mg
[2]; [8]
  % Inhibition, Decrease of Uterus Weight in Comparison to Single Estradiol Administration: 40%
[2]; [9]
  Uterus Weight, Average Value ± Standard Deviation: 43.3 ± 3.1 mg
[2]; 100 μg/animal/day s.c. + 0.03 μg estradiol/animal/day, 3 days
  % Inhibition, Decrease of Uterus Weight in Comparison to Single Estradiol Administration: 46%
[2]; 100 μg/animal/day s.c. + 0.03 μg estradiol/animal/day, 3 days, 8 animals per group
  Uterus Weight, Average Value ± Standard Deviation: 39.7 ± 3.1 mg
[2]; 300 μg/animal/day s.c. + 0.03 μg estradiol/animal/day, 3 days
  % Inhibition, Decrease of Uterus Weight in Comparison to Single Estradiol Administration: 58%
[2]; 300 μg/animal/day s.c. + 0.03 μg estradiol/animal/day, 3 days, 8 animals per group
  Uterus Weight, Average Value ± Standard Deviation: 34.1 ± 4.3 mg
[2]; 3 days
  Effect on uterus weight of the estradiol-stimulated uterus of infantile mice, in words: pronounced dosagedependent decrease in uterus weight

## CC(=O)O[C@]1(C(C)=O)CC[C@H]2[C@@H]3C=C(Cl)C4=CC(=O)[C@@H]5C[C@@H]5[C@]4(C)[C@H]3CC[C@@]21C [cyproterone acetate, 6-chloro-17-hydroxy-1α,2α-methylenepregna-4,6-diene-3,20-dione acetate]
[3]
  Effect on gland parenchyma: total atrophy of the gland parenchyma
  Effect on proliferation of the interstitium: proliferation of the interstitium is not affected

## CCCCCC(=O)O[C@]1(C(C)=O)CC[C@H]2[C@@H]3CCC4=CC(=O)CC[C@@H]4[C@H]3CC[C@@]21C [gestonorone caproate]
[4]; in vivo
  Maximum flow value (flow of urine per unit time): improved
  Reduction of the size of the adenoma: A marked reduction of the size of the adenoma, however, also cannot be achieved
[4]; prolonged prior to treatment
  Miction period: markedly shortened
[4]; prostate hyperplasia
  Effect compared with phyto-preparations: a better effect

## CC[C@H](CC[C@@H](C)[C@H]1CC[C@H]2[C@@H]3CC=C4C[C@@H](O)CC[C@]4(C)[C@H]3CC[C@]12C)C(C)C [β-sitosterol]
[5]
  Effectiveness in prostate hyperplasia: ineffective
